# Results as given in the supplement of paper PMC4862054.
# How the values were obtained:
# Conditions in all cases: incubation time: 72 h
# HDQ-P1 [1] = experiment: normalised viability (% of control), CellTiter-Blue; higher = more viable cells (100 = DMSO, 0 = benzethonium chloride kill control)
# Description: (§1)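 DSRT, CellTiter-Blue viability, 72 h incubation. Signal is normalised to DMSO and benzethonium chloride controls. Value is the normalised response at dose 1.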
# SK-BR-3 [2] = experiment: as above
# Description: as §1
# CAL-120 [3] = experiment: as above
# Description: as §1
# MDA-MB-453 [4] = experiment: as above
# Description: as §1
# MDA-MB-231 [5] = experiment: as above
# Description: as §1
# MDA-MB-468 [6] = experiment: as above
# Description: as §1
# CAL-51 [7] = experiment: as above
# Description: as §1
# Hs578T [8] = experiment: as above
# Description: as §1
# MFM-223 [9] = experiment: as above
# Description: as §1
# CAL-148 [10] = experiment: as above
# Description: as §1
# BT-549 [11] = experiment: as above
# Description: as §1
# HCC1599 [12] = experiment: as above
# Description: as §1
# DU-4475 [13] = experiment: as above
# Description: as §1
# HCC1143 [14] = experiment: as above
# Description: as §1
# HCC1937 [15] = experiment: as above
# Description: as §1
# MDA-MB-436 [16] = experiment: as above
# Description: as §1
# CAL-85-1 [17] = experiment: as above
# Description: as §1
# BT-474 [18] = experiment: as above
# Description: as §1
# HDQ-P1 [19] = experiment: normalised response (% of control), CellTiter-Glo; higher = more viable cells (100 = DMSO, 0 = benzethonium chloride kill control)
# How it was run: (§2)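 A 20 µl suspension of breast cancer cells was seeded into each well of 384-well plates containing compound at 5 concentrations in 10-fold steps over a compound-specific 10,000-fold range. After 72 h incubation, CellTox Green fluorescence (485/520 nm) was read first, and CellTiter-Glo luminescence was read after 10 min at room temperature. Each plate was normalised against 0.1 % DMSO (100) and a positive kill control (0), and each value is the normalised signal at one concentration.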
# SK-BR-3 [20] = experiment: as above
# How it was run: as §2
# CAL-120 [21] = experiment: as above
# How it was run: as §2
# MCF-10A = experiment: as above
# How it was run: as §2
# MDA-MB-453 [22] = experiment: as above
# How it was run: as §2
# MDA-MB-231 [23] = experiment: as above
# How it was run: as §2
# MDA-MB-468 [24] = experiment: as above
# How it was run: as §2
# CAL-51 [25] = experiment: as above
# How it was run: as §2
# Hs578T [26] = experiment: as above
# How it was run: as §2
# MFM-223 [27] = experiment: as above
# How it was run: as §2
# CAL-148 [28] = experiment: as above
# How it was run: as §2
# BT-549 [29] = experiment: as above
# How it was run: as §2
# HCC1599 [30] = experiment: as above
# How it was run: as §2
# DU-4475 [31] = experiment: as above
# How it was run: as §2
# HCC1143 [32] = experiment: as above
# How it was run: as §2
# HCC1937 [33] = experiment: as above
# How it was run: as §2
# MDA-MB-436 [34] = experiment: as above
# How it was run: as §2
# CAL-85-1 [35] = experiment: as above
# How it was run: as §2
# BT-474 [36] = experiment: as above
# How it was run: as §2
Compound,normalised viability (HDQ-P1 [1]) [%],normalised viability (SK-BR-3 [2]) [%],normalised viability (CAL-120 [3]) [%],normalised viability (MDA-MB-453 [4]) [%],normalised viability (MDA-MB-231 [5]) [%],normalised viability (MDA-MB-468 [6]) [%],normalised viability (CAL-51 [7]) [%],normalised viability (Hs578T [8]) [%],normalised viability (MFM-223 [9]) [%],normalised viability (CAL-148 [10]) [%],normalised viability (BT-549 [11]) [%],normalised viability (HCC1599 [12]) [%],normalised viability (DU-4475 [13]) [%],normalised viability (HCC1143 [14]) [%],normalised viability (HCC1937 [15]) [%],normalised viability (MDA-MB-436 [16]) [%],normalised viability (CAL-85-1 [17]) [%],normalised viability (BT-474 [18]) [%],normalised response (HDQ-P1 [19]) [%],normalised response (SK-BR-3 [20]) [%],normalised response (CAL-120 [21]) [%],normalised response (MCF-10A) [%],normalised response (MDA-MB-453 [22]) [%],normalised response (MDA-MB-231 [23]) [%],normalised response (MDA-MB-468 [24]) [%],normalised response (CAL-51 [25]) [%],normalised response (Hs578T [26]) [%],normalised response (MFM-223 [27]) [%],normalised response (CAL-148 [28]) [%],normalised response (BT-549 [29]) [%],normalised response (HCC1599 [30]) [%],normalised response (DU-4475 [31]) [%],normalised response (HCC1143 [32]) [%],normalised response (HCC1937 [33]) [%],normalised response (MDA-MB-436 [34]) [%],normalised response (CAL-85-1 [35]) [%],normalised response (BT-474 [36]) [%]
O=NN(CCCl)C(=O)NCCCl [Carmustine] (1 nM),111,99.8,94.2,108,133,106,107,134,93.5,115,103,97,120,90.5,88.8,75.7,87.8,87.5,99.3,90.5,100,87.3,109,98.2,98.1,87.1,100,94.2,89.3,97.1,103,103,97.8,97.6,80,94.4,97
CC1=C2C[C@H]3[C@@H](CC=C4C[C@@H](O)CC[C@@]43C)[C@@H]2CC[C@]12O[C@@H]1C[C@H](C)CN[C@H]1[C@H]2C [Cyclopamine] (1 nM),135,97.3,94,102,100,103,109,121,97.5,117,111,96.5,120,97.4,109,126,94.5,118,103,115,107,108,111,103,101,107,103,103,123,104,98.1,106,103,106,106,100,103
CC1(C)CNc2cc(NC(=O)c3cccnc3NCc3ccncc3)ccc21 [Motesanib] (1 nM),84.2,82.2,79.6,85,76.7,87.1,110,103,77.8,96.5,103,84.8,94.1,86.3,93.4,71.3,75.9,96.6,93.5,92.1,94,91.8,103,97.1,103,107,96.9,101,89.4,99.7,91.5,99.9,99,93.1,94.8,96,91.2
CC[C@@H]1C(=O)OC[C@@H]1Cc1cncn1C [Pilocarpine] (4 nM),133,91.8,100,99.1,97.1,104,108,92.9,88.8,108,103,85.4,99.7,97.6,94.3,113,96.3,74.9,95.7,99.2,94,94.6,111,96.1,98.4,123,103,101,96.4,101,76.7,100,93.7,92.8,79.3,95,91.7
CC(C)(C)c1cnc(CSc2cnc(NC(=O)C3CCNCC3)s2)o1 [SNS-032] (1 nM),102,101,86.2,103,97.7,104,113,104,93.1,113,113,101,99,85.9,103,113,92.7,101,95,90.8,91.2,95.5,99.2,97.5,92,86.2,97.6,92,92.2,101,96.3,98.2,97.3,90.8,84.1,105,92.2
Cn1cnc2c(F)c(Nc3ccc(Br)cc3Cl)c(C(=O)NOCCO)cc21 [Selumetinib] (1 nM),107,94,81,109,89,101,113,107,83.6,107,102,98.5,102,90.6,100,97.6,90.1,104,91.4,96.5,93.3,81.2,111,97,93.8,99.8,99,94.9,87.8,103,93.2,95.5,89.6,89.5,80.8,104,84.7
Nc1nc2[nH]cnc2c(=S)[nH]1 [Thioguanine] (1 nM),111,99.9,97.5,104,92.8,104,104,136,98.4,107,98.8,110,105,95.3,90.2,101,98.1,100,98.4,94.2,93.3,101,98.1,96.2,94.5,77.6,101,94.1,95.3,104,105,96.7,98.9,92.8,94,92.8,98.1
